Source: US10787413B2, “Derivatives of curcuminoids and use thereof as an anticancer agent” (CHINA MEDICAL UNIVERSITY, priority 2016, dated 2020)

Assays:
[1] = system: CDK1; assay: CDK1 kinase assay on extracts of treated cells; assay type: cell-based, human; conditions: 4-12 h of treatment
Experimental: CDK1 kinase activity was analyzed according to the protocol of Medical & Biological Laboratories CDK1 kinase assay kit (MBL International, Nagoya, Japan). In brief; the ability of cell extract prepared from each treatment was measured to phosphorylate its specific substrate, MV Peptide as described previously^23.

[2] = system: MDA-MB-231 cells; assay: cDNA microarray; assay type: cell-based, human
Experimental: The cells were incubated with or without 21a. After exposure, cell pellets were collected, and the total RNA from each treatment was purified using the Qiagen RNeasy Mini Kit (Qiagen, Valencia, Calif., USA). The RNA purity was determined to check the quality at 260/280 nm using a NanoDrop 1000 Spectrophotometer (Thermo Fisher Scientific, Wilmington, Del., USA). mRNA was amplified and labeled using the Gene-Chip WT Sense Target Labeling and Control Reagents kit (Affymetrix, Santa Clara, Calif., USA) for expression analysis. The synthesized cDNA was labeled with fluorescence and then hybridized for 17 h using AffymetrixGeneChip Human Gene 1.0 ST array (Affymetrix) to determine microarray hybridization following the manufacturer's protocols. The arrays were subsequently washed using Fluidics Station 450 (Affymetrix), stained with streptavidin-phycoerythrin (Gene-Chip Hybridization, Wash, and Stain kit, Affymetrix), and scanned on a GeneChip Scanner 3000 (Affymetrix). The localized concentrations of fluorescent molecules were quantitated and analyzed using Expression Console Software (Affymetrix) with default RMA parameters as previously described (Chang et al. 2012; Liu et al. 2013). […]

For `COc1cc(/C=C/C(=O)/C=C(O)/C=C/c2ccc(OC(=O)C(C)(CO)CO)c(OC)c2)ccc1OC(=O)C(C)(CO)CO` [Compound 21a, ((1E,3Z,6E)-3-Hydroxy-5-oxohepta-1,3,6-triene-1,7-diyl)bis(2-methoxy-4,1-phenylene) bis(3-hydroxy-2-(hydroxymethyl)-2-methylpropenoate)], the CDK1 activity [1] was “significant decrease”, the genes down-regulated ([2]; at least 2.5 folds) was 28 genes and the genes up-regulated ([2]; at least 2.5 folds) was 69 genes. The “log2 (Ratio) ATF3” value ([2]; mRNA, MDA-MB-231 cells, 24-h treatment, ID PH_hs_0000057) was 3.698, the “log2 (Ratio) IL12A” value ([2]; mRNA, MDA-MB-231 cells, 24-h treatment, ID PH_hs_0000076) was 4.587 and the “log2 (Ratio) DUSP2” value ([2]; mRNA, MDA-MB-231 cells, 24-h treatment, ID PH_hs_0000156) was 4.094. For the same compound, the “log2 (Ratio) SRGN” value ([2]; mRNA, MDA-MB-231 cells, 24-h treatment, ID PH_hs_0000255) was 2.917, the “log2 (Ratio) MMP10” value ([2]; mRNA, MDA-MB-231 cells, 24-h treatment, ID PH_hs_0000305) was 4.942 and the “log2 (Ratio) SLC25A25” value ([2]; mRNA, MDA-MB-231 cells, 24-h treatment, ID PH_hs_0000566) was 2.529. The “log2 (Ratio) DNAJB9” value ([2]; mRNA, MDA-MB-231 cells, 24-h treatment, ID PH_hs_0000684) was 3.854, the “log2 (Ratio) RND3” value ([2]; mRNA, MDA-MB-231 cells, 24-h treatment, ID PH_hs_0000694) was 2.626 and the “log2 (Ratio) SESN2” value ([2]; mRNA, MDA-MB-231 cells, 24-h treatment, ID PH_hs_0000852) was 3.324. For the same compound, the “log2 (Ratio) OMA1” value ([2]; mRNA, MDA-MB-231 cells, 24-h treatment, ID PH_hs_0000866) was −2.613, the “log2 (Ratio) SENP5” value ([2]; mRNA, MDA-MB-231 cells, 24-h treatment, ID PH_hs_0001262) was 2.748 and the “log2 (Ratio) SAT1” value ([2]; mRNA, MDA-MB-231 cells, 24-h treatment, ID PH_hs_0002492) was 3.366. The “log2 (Ratio) OSGEN1” value ([2]; mRNA, MDA-MB-231 cells, 24-h treatment, ID PH_hs_0002700) was 3.513, the “log2 (Ratio) C18orf25” value ([2]; mRNA, MDA-MB-231 cells, 24-h treatment, ID PH_hs_0002812) was 2.668 and the “log2 (Ratio) ZNF77” value ([2]; mRNA, MDA-MB-231 cells, 24-h treatment, ID PH_hs_0002971) was 2.665. For the same compound, the “log2 (Ratio) PDGFC” value ([2]; mRNA, MDA-MB-231 cells, 24-h treatment, ID PH_hs_0003147) was −2.534, the “log2 (Ratio) SMIM13” value ([2]; mRNA, MDA-MB-231 cells, 24-h treatment, ID PH_hs_0003180) was 2.646 and the “log2 (Ratio) PPP1R15A” value ([2]; mRNA, MDA-MB-231 cells, 24-h treatment, ID PH_hs_0004421) was 5.381. The “log2 (Ratio) GEM” value ([2]; mRNA, MDA-MB-231 cells, 24-h treatment, ID PH_hs_0004561) was 3.997, the “log2 (Ratio) MMP1” value ([2]; mRNA, MDA-MB-231 cells, 24-h treatment, ID PH_hs_0004751) was 3.219 and the “log2 (Ratio) LMNB1” value ([2]; mRNA, MDA-MB-231 cells, 24-h treatment, ID PH_hs_0004988) was −2.878. For the same compound, the “log2 (Ratio) ZFAND2A” value ([2]; mRNA, MDA-MB-231 cells, 24-h treatment, ID PH_hs_0006387) was 6.274, the “log2 (Ratio) F2R” value ([2]; mRNA, MDA-MB-231 cells, 24-h treatment, ID PH_hs_0007383) was −2.717 and the “log2 (Ratio) TOP2A” value ([2]; mRNA, MDA-MB-231 cells, 24-h treatment, ID PH_hs_0009437) was −3.052. The “log2 (Ratio) DUSP1” value ([2]; mRNA, MDA-MB-231 cells, 24-h treatment, ID PH_hs_0010276) was 4.189, the “log2 (Ratio) TXNIP|LOC101060503” value ([2]; mRNA, MDA-MB-231 cells, 24-h treatment, ID PH_hs_0010634) was −2.66 and the “log2 (Ratio) H1F0” value ([2]; mRNA, MDA-MB-231 cells, 24-h treatment, ID PH_hs_0012629) was −2.89. For the same compound, the “log2 (Ratio) BRF2” value ([2]; mRNA, MDA-MB-231 cells, 24-h treatment, ID PH_hs_0014119) was 2.572, the “log2 (Ratio) HSPA1B” value ([2]; mRNA, MDA-MB-231 cells, 24-h treatment, ID PH_hs_0014155) was 2.836 and the “log2 (Ratio) METTL7A” value ([2]; mRNA, MDA-MB-231 cells, 24-h treatment, ID PH_hs_0014995) was −3.653. The “log2 (Ratio) CLK1” value ([2]; mRNA, MDA-MB-231 cells, 24-h treatment, ID PH_hs_0020147) was 2.804, the “log2 (Ratio) DNAJC3” value ([2]; mRNA, MDA-MB-231 cells, 24-h treatment, ID PH_hs_0021974) was 3.011 and the “log2 (Ratio) CLCF1” value ([2]; mRNA, MDA-MB-231 cells, 24-h treatment, ID PH_hs_0022919) was 2.961. For the same compound, the “log2 (Ratio) FRS2” value ([2]; mRNA, MDA-MB-231 cells, 24-h treatment, ID PH_hs_0023008) was 3.242, the “log2 (Ratio) C21orf91” value ([2]; mRNA, MDA-MB-231 cells, 24-h treatment, ID PH_hs_0023556) was 2.733 and the “log2 (Ratio) HSPA5” value ([2]; mRNA, MDA-MB-231 cells, 24-h treatment, ID PH_hs_0023711) was 2.599. The “log2 (Ratio) BBS2” value ([2]; mRNA, MDA-MB-231 cells, 24-h treatment, ID PH_hs_0023845) was −3.269, the “log2 (Ratio) CBY1” value ([2]; mRNA, MDA-MB-231 cells, 24-h treatment, ID PH_hs_0023862) was −2.551 and the “log2 (Ratio) TRIB3” value ([2]; mRNA, MDA-MB-231 cells, 24-h treatment, ID PH_hs_0023894) was 2.584. The “log2 (Ratio) CDKN1A” value ([2]; mRNA, MDA-MB-231 cells, 24-h treatment, ID PH_hs_0024155) was 2.904, the “log2 (Ratio) ATP2A2” value ([2]; mRNA, MDA-MB-231 cells, 24-h treatment, ID PH_hs_0024236) was 2.548 and the “log2 (Ratio) DNAJB4” value ([2]; mRNA, MDA-MB-231 cells, 24-h treatment, ID PH_hs_0024315) was 3.075. For the same compound, the “log2 (Ratio) C3orf52” value ([2]; mRNA, MDA-MB-231 cells, 24-h treatment, ID PH_hs_0025319) was 3.562, the “log2 (Ratio) CLU” value ([2]; mRNA, MDA-MB-231 cells, 24-h treatment, ID PH_hs_0025525) was 3.198 and the “log2 (Ratio) CTDSP1” value ([2]; mRNA, MDA-MB-231 cells, 24-h treatment, ID PH_hs_0025966) was −2.552. The “log2 (Ratio) RMND5A” value ([2]; mRNA, MDA-MB-231 cells, 24-h treatment, ID PH_hs_0027152) was 3.038 and the “log2 (Ratio) SLC3A2” value ([2]; mRNA, MDA-MB-231 cells, 24-h treatment, ID PH_hs_0027162) was 2.961.
